We go through two compounds from PubChem BioAssay AID588737 (Vanderbilt Specialized Chemistry Center, 2011).

Structures are written as SMILES.

In this assay the target is Metabotropic glutamate receptor 5 (Homo sapiens) (UniProt P41594). Briefly: PubChem AID 588737. Particulars: HEK293A hmGluR5 calcium fluorescence, glutamate CRC fold shift, at 10 µM, stronger effect = higher value; for Emax: glutamate max response with compound.
Sequence of Metabotropic glutamate receptor 5 (Homo sapiens) (P41594 whole entry, looked up): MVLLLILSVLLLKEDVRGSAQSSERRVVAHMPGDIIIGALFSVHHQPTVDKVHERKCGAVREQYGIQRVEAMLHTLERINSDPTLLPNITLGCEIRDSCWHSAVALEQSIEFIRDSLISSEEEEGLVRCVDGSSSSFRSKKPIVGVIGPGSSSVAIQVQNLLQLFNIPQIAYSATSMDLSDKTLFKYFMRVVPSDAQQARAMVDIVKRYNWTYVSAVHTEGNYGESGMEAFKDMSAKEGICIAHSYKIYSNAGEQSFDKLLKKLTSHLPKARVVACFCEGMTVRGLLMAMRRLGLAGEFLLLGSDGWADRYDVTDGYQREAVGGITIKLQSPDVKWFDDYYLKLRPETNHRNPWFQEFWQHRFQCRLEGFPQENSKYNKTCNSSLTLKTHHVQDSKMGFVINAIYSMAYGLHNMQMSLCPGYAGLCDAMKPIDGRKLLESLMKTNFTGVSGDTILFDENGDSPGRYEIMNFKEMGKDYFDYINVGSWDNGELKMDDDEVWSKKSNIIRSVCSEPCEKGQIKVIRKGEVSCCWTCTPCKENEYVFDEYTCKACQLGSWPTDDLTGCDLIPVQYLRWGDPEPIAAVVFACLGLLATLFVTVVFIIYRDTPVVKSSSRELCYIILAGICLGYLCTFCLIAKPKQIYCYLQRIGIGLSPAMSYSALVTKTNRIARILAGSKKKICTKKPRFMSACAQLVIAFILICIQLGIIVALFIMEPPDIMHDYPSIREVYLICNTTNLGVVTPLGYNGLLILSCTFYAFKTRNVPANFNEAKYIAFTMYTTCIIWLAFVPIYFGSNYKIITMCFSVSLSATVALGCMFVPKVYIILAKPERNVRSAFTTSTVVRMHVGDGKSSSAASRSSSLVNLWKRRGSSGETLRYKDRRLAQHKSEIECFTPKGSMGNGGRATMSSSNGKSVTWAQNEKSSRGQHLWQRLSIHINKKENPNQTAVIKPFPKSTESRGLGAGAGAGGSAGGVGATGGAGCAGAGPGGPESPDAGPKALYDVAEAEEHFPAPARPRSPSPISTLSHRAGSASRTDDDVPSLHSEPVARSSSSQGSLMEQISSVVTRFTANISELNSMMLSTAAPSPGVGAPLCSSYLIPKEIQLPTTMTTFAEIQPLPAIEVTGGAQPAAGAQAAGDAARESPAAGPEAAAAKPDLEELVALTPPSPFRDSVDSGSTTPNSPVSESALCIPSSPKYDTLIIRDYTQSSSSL

On to `C[C@@H](NC(=O)c1ccc(C#Cc2cccc(F)c2)cn1)C(C)(C)O`, for which the fold shift was 9.79 and the Emax came out at 95%.

On to `CC1(NC(=O)c2ccc(C#Cc3cccc(F)c3)cn2)COC1`, for which the fold shift was 2.19 and the Emax turned out to be 88%.
